# PMC5554220, “A Novel Aldosterone Antagonist Limits Renal Injury in 5/6 Nephrectomy” (Scientific Reports, 2017)
# Experiments:
# [1] = tested on: rats with 5/6 renal ablation (Nx); assay: Protocol 1 (early treatment), 5/6 renal ablation (Nx); format: in vivo, male Munich-Wistar rats
# Excerpt: One-hundred forty-five adult male Munich-Wistar rats, obtained from a local facility at the Faculty of Medicine, University of São Paulo, weighing between 220 and 250 g, were used in this study. All experimental procedures were approved by the local Research Ethics Committee (Comissão de Ética para Análise de Projetos de Pesquisa do Hospital das Clínicas da Faculdade de Medicina da Universidade de São Paulo, CAPPesq, process n° 0905/09), and carried out following strictly our institutional guidelines and current international standards for manipulation and care of laboratory animals. Body weights and general conditions were assessed daily. Five-sixths renal ablation (Nx) was performed as a single-step procedure under anesthesia with ketamine 50 mg/kg and xylazine 10 mg/kg im. After ventral laparotomy, the right kidney was excised and two or three branches of the left renal artery were ligated, so as to promote infarction of two-thirds of the left kidney. The operation was invariably well tolerated. Sham-operated rats underwent anesthesia and manipulation of the renal pedicles without removal of renal mass. After surgery, rats received enrofloxacin and, upon recovery, had free access to tap water and regular rodent chow containing 0.5 Na and 22% protein (Nuvital Labs, Curitiba, Brazil), and were kept at 23 ± 1 °C and 60 ± 5% relative air humidity, under an artificial 12–12 hour light/dark cycle. Rats were then treated following two different experimental protocols (described later).
# In this first protocol, Nx rats were divided into groups: NX + V (N = 8), receiving vehicle; NX + Eple (N = 8), receiving oral (mixed with the chow) Eple, 150 mg/kg/day; and Nx + Ly (N = 8), receiving oral Ly, 20 mg/kg/day. A group of sham-operated rats (S, N = 7) was also studied. Treatments were started 24 h after surgery. Rats were followed during 60 days, with determination of TCP and UalbV on Days 30 and 60. TCP was assessed with an optoelectronic automated device (Visitech Systems, Apex, NC), after rats had been preconditioned so as to remain calm during the procedure. UalbV was measured with a conventional immunodiffusion technique. On Day 60, rats were anesthetized as described before, and blood was collected from the abdominal aorta for determination of serum creatinine, serum K^+, PRA and PAC. The remnant kidney was then perfusion-fixed with Duboscq-Brazil solution after a brief washout with saline to remove blood from renal vessels, and prepared for histomorphometric and immunohistochemical analyses using conventional sequential techniques.
# Histomorphometric analysis was performed blindly by two independent observers. The extent of glomerular injury was estimated, in PAS-stained sections, by determining the percentage of glomeruli with sclerotic lesions. The fraction of the renal cortical area occupied by interstitial tissue (%INT) was estimated in 25 consecutive microscopic fields of Masson-stained sections by a point-counting technique, at a final magnification of 200X, under a 144-point grid.
# PRA and PAC were determined using commercially available radioimmunoassay kits (Renin Active IRMA and Aldosterone Active RIA, Beckman Coulter, Carlsbad, CA).
# [2] = Pharmacokinetics (data not shown)
# [3] = molecular target: T1, human glucocorticoid receptor (hGR) (Homo sapiens, UniProt P04150); assay: Radioligand binding, hGR expressed in HEK293 cells
# T1 construct: expressed in transfected cells; host or cells: HEK293 cells
# T1 sequence (P04150 1-777): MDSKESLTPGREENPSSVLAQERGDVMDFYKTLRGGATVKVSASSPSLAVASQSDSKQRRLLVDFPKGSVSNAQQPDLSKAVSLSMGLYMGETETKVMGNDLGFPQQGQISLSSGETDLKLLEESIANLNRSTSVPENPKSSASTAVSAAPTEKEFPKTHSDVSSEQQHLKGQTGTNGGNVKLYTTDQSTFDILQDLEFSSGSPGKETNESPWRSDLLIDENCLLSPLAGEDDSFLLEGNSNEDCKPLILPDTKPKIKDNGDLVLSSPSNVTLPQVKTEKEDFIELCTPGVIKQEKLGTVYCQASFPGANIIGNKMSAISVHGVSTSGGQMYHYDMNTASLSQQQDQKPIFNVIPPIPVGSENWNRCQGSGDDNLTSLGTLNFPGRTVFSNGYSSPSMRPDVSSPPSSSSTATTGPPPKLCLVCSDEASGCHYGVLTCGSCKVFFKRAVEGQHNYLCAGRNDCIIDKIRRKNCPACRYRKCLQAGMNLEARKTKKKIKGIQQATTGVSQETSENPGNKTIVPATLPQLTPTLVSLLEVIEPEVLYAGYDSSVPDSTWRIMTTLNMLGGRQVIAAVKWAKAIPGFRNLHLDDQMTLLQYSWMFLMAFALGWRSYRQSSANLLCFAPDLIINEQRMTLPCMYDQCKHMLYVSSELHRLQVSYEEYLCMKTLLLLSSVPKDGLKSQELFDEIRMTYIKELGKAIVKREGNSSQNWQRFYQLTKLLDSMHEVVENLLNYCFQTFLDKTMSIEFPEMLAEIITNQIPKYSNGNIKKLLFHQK
# Protocol: Affinity of ligands to the soluble receptor was determined using vacuum filtration methods, preparing soluble receptors in 96-well Falcon polystyrene plates (BD Biosciences, Bedford, MA) in a total volume of 250 μl. The hMR Sf9 lysate (approximately 20–25 μg protein in 20 μl) was incubated in the absence or presence of competing ligands with 10 μl of [1,2,6,7-3H] […] Binding studies for ligands for hPR and hAR were determined using [1,2,6,7-3H(N)] Progesterone (specific activity 103 Ci/mmol, at a final concentration 0.5 nM; NET381, NEN/Perkin Elmer Life Sciences, Boston, MA) and [17α-methyl-3H] Mibolerone, an enzymaticaly stable analog of testosterone (specific activity 76.8 Ci/mmol, final concentration 0.3 nM; NET919, NEN), respectively. Specific binding of 3H-progesterone for hPR and 3H-mibolerone for hAR was determined in the presence and absence of 1 μM mifepristone. Inhibition constants (Ki), were determined either from the Cheng-Prusoff equation[32], or directly using non-linear regression curve fitting to a three-parameter one-site competitive equation. Ki values obtained from individual concentration response curves were reported as the mean ± SEM. Protein was measured using colorimetric detection and quantification of bicinchoninic acid (BCA Protein Assay, Pierce, Rockford, IL). Cos-7L cells were cotransfected with expression vectors and a reporter plasmid responsive to all 3 nuclear hormone receptors. pBluescript II SK (+) (Stratagene, San Diego, CA) was included as a source of carrier DNA. The number of repetitions of full concentration response curves (n) represents values from at least two independent experiments for each condition. Concentration response curves were analyzed statistically using a four-parameter logistic equation (Hill equation for sigmoid curves). Similar methodology was adopted for the human glucocorticoid receptor (hGR) expressed in HEK293 cells.
structure (smiles),measurement,setting,value
O=c1[nH]c2ccc(/C=C3\c4ccc(F)cc4COc4cc(F)ccc43)cc2[nH]1 [Ly],Albumin excretion rate (UalbV),"[1]; 60 days after ablation, Eple 150 mg/kg/day, Ly 20 mg/kg/day oral",significantly lower in Ly-treated than in untreated or Eple-treated rats
same,Fractional cortical interstitial area,[1]; Day 60,significantly diminished
same,Left kidney weight corrected for body weight (renal hypertrophy),[1]; Day 60,renal hypertrophy was significantly attenuated
same,Plasma renin activity (PRA),[1]; Day 60,markedly increased PRA
same,PAC relative to sham (S),"[1]; Day 60, higher than in S",over 30 fold
same,Plasma K+ levels,"[1]; Day 60, versus Nx + V",not aggravated
same,Tail-cuff pressure (TCP),"[1]; Eple 150 mg/kg/day, Ly 20 mg/kg/day oral",More pronounced attenuation of hypertension
same,Pharmacokinetics properties,[2],good pharmacokinetics properties
same,Ki,"[3]; hGR expressed in HEK293 cells, read-out: Mean Ki ± SEM hGR*",112 ± 18 nM
same,Ratio of Ki's hGR*: hMR,[3]; selectivity,70
